In brackets after ≈: the same amount, converted by molar mass.
Assays:
[1] = tested on: P-388 (mouse DBA/2 lymphoid neoplasm); experiment: General anti-tumour assay, P-388; format: cell-based
Procedure: (§1) With compounds AH-3, AH-4 and AH-5, four general anti-tumour assays and two cytotoxicity assays were performed. Current screening protocols were employed using test substance diluted as above and at varying concentrations. Tests were performed against the tumour cells P-388 (mouse DBA/2 lymphoid neoplasm), A-549 (human lung carcinoma), HT-29 (human colon carcinoma) and MCF-7 (human breast carcinoma) and for the cytotoxicity assays against CV-1 (monkey kidney fibroblast) and BHK (Hamster kidney fibroblast).
(§2) Scoring is performed as follows: (-) no activity - the number of cells is equal to the control of growth, 0-40% cell inhibition (+) low activity - numbers of cells are reduced by approx 50-60% (++) good activity - numbers of cells are reduced by approx 70-90% (+++) very good activity - there is 100% cell inhibition [(+) is the approximate IC₅₀]

[2] = tested on: A-549 (human lung carcinoma); experiment: General anti-tumour assay, A-549; format: cell-based
Procedure: as §1, §2

[3] = tested on: HT-29 (human colon carcinoma); experiment: General anti-tumour assay, HT-29; format: cell-based
Procedure: as §1, §2

[4] = tested on: MCF-7 (human breast carcinoma); experiment: General anti-tumour assay, MCF-7; format: cell-based
Procedure: as §1, §2

[5] = tested on: CV-1 (monkey kidney fibroblast); experiment: Cytotoxicity assay, CV-1; format: cell-based
Procedure: as §1, §2

[6] = tested on: BHK (Hamster kidney fibroblast); experiment: Cytotoxicity assay, BHK; format: cell-based
Procedure: as §1, §2

[7] = tested on: HSV-1 (herpes simplex virus, type 1); experiment: General anti-viral assay, HSV-1 in CV-1 cells (plaque reduction); format: cell-based; conditions: Human alphaherpesvirus 1; CV-1/ HSV-1; read-out: IC50 µg/ml approx
[8] = tested on: VSV (Vesicular Stomatitis Virus); experiment: microbe, parasite or virus in culture; format: cell-based; conditions: BHK, read-out: IC50 µg/ml approx

SMILES: CC(C)=CC1CC(C)C2CCC(C)c3c4c(c(C)c1c32)OCO4 (stereo not drawn) [AH-5, Helioporin E]
- IC50 ([1]; Mus musculus, P388, P-388, read-out: IC50 µg/ml approx): 5 to 10 µg/mL (≈ 16 to 32 µM)
- activity (cell inhibition) ([1]; P-388, TEST CONC (µg) 0.2): - ((-) no activity - the number of cells is equal to the control of growth, 0-40% cell inhibition)
- activity (cell inhibition) ([1]; P-388, TEST CONC (µg) 0.5): - ((-) no activity - the number of cells is equal to the control of growth, 0-40% cell inhibition)
- activity (cell inhibition) ([1]; P-388, TEST CONC (µg) 1): - ((-) no activity - the number of cells is equal to the control of growth, 0-40% cell inhibition)
- activity (cell inhibition) ([1]; P-388, TEST CONC (µg) 2): - ((-) no activity - the number of cells is equal to the control of growth, 0-40% cell inhibition)
- activity (cell inhibition) ([1]; P-388, TEST CONC (µg) 5): - ((-) no activity - the number of cells is equal to the control of growth, 0-40% cell inhibition)
- activity (cell inhibition) ([1]; P-388, TEST CONC (µg) 10): ++ ((++) good activity - numbers of cells are reduced by approx 70-90%)
- activity (cell inhibition) ([1]; P-388, TEST CONC (µg) 20): ++ ((++) good activity - numbers of cells are reduced by approx 70-90%)
- activity (cell inhibition) ([2]; A-549, TEST CONC (µg) 0.2): - ((-) no activity - the number of cells is equal to the control of growth, 0-40% cell inhibition)
- activity (cell inhibition) ([2]; A-549, TEST CONC (µg) 0.5): - ((-) no activity - the number of cells is equal to the control of growth, 0-40% cell inhibition)
- activity (cell inhibition) ([2]; A-549, TEST CONC (µg) 1): - ((-) no activity - the number of cells is equal to the control of growth, 0-40% cell inhibition)
- activity (cell inhibition) ([2]; A-549, TEST CONC (µg) 2): - ((-) no activity - the number of cells is equal to the control of growth, 0-40% cell inhibition)
- activity (cell inhibition) ([2]; A-549, TEST CONC (µg) 5): - ((-) no activity - the number of cells is equal to the control of growth, 0-40% cell inhibition)
- activity (cell inhibition) ([2]; A-549, TEST CONC (µg) 10): - ((-) no activity - the number of cells is equal to the control of growth, 0-40% cell inhibition)
- activity (cell inhibition) ([2]; A-549, TEST CONC (µg) 20): - ((-) no activity - the number of cells is equal to the control of growth, 0-40% cell inhibition)
- IC50 ([2]; Homo sapiens, A549, A-549, read-out: IC50 µg/ml approx): > 20 µg/mL
- activity (cell inhibition) ([3]; HT-29, TEST CONC (µg) 0.2): - ((-) no activity - the number of cells is equal to the control of growth, 0-40% cell inhibition)
- activity (cell inhibition) ([3]; HT-29, TEST CONC (µg) 0.5): - ((-) no activity - the number of cells is equal to the control of growth, 0-40% cell inhibition)
- activity (cell inhibition) ([3]; HT-29, TEST CONC (µg) 1): - ((-) no activity - the number of cells is equal to the control of growth, 0-40% cell inhibition)
- activity (cell inhibition) ([3]; HT-29, TEST CONC (µg) 2): - ((-) no activity - the number of cells is equal to the control of growth, 0-40% cell inhibition)
- activity (cell inhibition) ([3]; HT-29, TEST CONC (µg) 5): + ((+) low activity - numbers of cells are reduced by approx 50-60%)
- activity (cell inhibition) ([3]; HT-29, TEST CONC (µg) 10): ++ ((++) good activity - numbers of cells are reduced by approx 70-90%)
- activity (cell inhibition) ([3]; HT-29, TEST CONC (µg) 20): +++ ((+++) very good activity - there is 100% cell inhibition)
- IC50 ([3]; Homo sapiens, HT-29, read-out: IC50 µg/ml approx): ~5 µg/mL (≈ 16 µM)
- IC50 ([4]; Homo sapiens, MCF7, MCF-7, read-out: IC50 µg/ml approx): ~10 µg/mL (≈ 32 µM)
- activity (cell inhibition) ([4]; MCF-7, TEST CONC (µg) 0.2): - ((-) no activity - the number of cells is equal to the control of growth, 0-40% cell inhibition)
- activity (cell inhibition) ([4]; MCF-7, TEST CONC (µg) 0.5): - ((-) no activity - the number of cells is equal to the control of growth, 0-40% cell inhibition)
- activity (cell inhibition) ([4]; MCF-7, TEST CONC (µg) 1): - ((-) no activity - the number of cells is equal to the control of growth, 0-40% cell inhibition)
- activity (cell inhibition) ([4]; MCF-7, TEST CONC (µg) 2): - ((-) no activity - the number of cells is equal to the control of growth, 0-40% cell inhibition)
- activity (cell inhibition) ([4]; MCF-7, TEST CONC (µg) 5): - ((-) no activity - the number of cells is equal to the control of growth, 0-40% cell inhibition)
- activity (cell inhibition) ([4]; MCF-7, TEST CONC (µg) 10): + ((+) low activity - numbers of cells are reduced by approx 50-60%)
- activity (cell inhibition) ([4]; MCF-7, TEST CONC (µg) 20): +++ ((+++) very good activity - there is 100% cell inhibition)
- activity (cell inhibition) ([5]; CV-1, TEST CONC (µg) 0.2): - ((-) no activity - the number of cells is equal to the control of growth, 0-40% cell inhibition)
- activity (cell inhibition) ([5]; CV-1, TEST CONC (µg) 0.5): - ((-) no activity - the number of cells is equal to the control of growth, 0-40% cell inhibition)
- activity (cell inhibition) ([5]; CV-1, TEST CONC (µg) 1): - ((-) no activity - the number of cells is equal to the control of growth, 0-40% cell inhibition)
- activity (cell inhibition) ([5]; CV-1, TEST CONC (µg) 2): - ((-) no activity - the number of cells is equal to the control of growth, 0-40% cell inhibition)
- activity (cell inhibition) ([5]; CV-1, TEST CONC (µg) 5): - ((-) no activity - the number of cells is equal to the control of growth, 0-40% cell inhibition)
- activity (cell inhibition) ([5]; CV-1, TEST CONC (µg) 10): - ((-) no activity - the number of cells is equal to the control of growth, 0-40% cell inhibition)
- activity (cell inhibition) ([5]; CV-1, TEST CONC (µg) 20): ++ ((++) good activity - numbers of cells are reduced by approx 70-90%)
- IC50 ([5]; Primates, CV-1, read-out: IC50 µg/ml approx): 10 to 20 µg/mL (≈ 32 to 64 µM)
- IC50 ([6]; Mesocricetus auratus, read-out: IC50 µg/ml approx): ~5 µg/mL (≈ 16 µM)
- activity (cell inhibition) ([6]; TEST CONC (µg) 0.2): - ((-) no activity - the number of cells is equal to the control of growth, 0-40% cell inhibition)
- activity (cell inhibition) ([6]; TEST CONC (µg) 0.5): - ((-) no activity - the number of cells is equal to the control of growth, 0-40% cell inhibition)
- activity (cell inhibition) ([6]; TEST CONC (µg) 1): - ((-) no activity - the number of cells is equal to the control of growth, 0-40% cell inhibition)
- activity (cell inhibition) ([6]; TEST CONC (µg) 2): - ((-) no activity - the number of cells is equal to the control of growth, 0-40% cell inhibition)
- activity (cell inhibition) ([6]; TEST CONC (µg) 5): + ((+) low activity - numbers of cells are reduced by approx 50-60%)
- activity (cell inhibition) ([6]; TEST CONC (µg) 10): +++ ((+++) very good activity - there is 100% cell inhibition)
- activity (cell inhibition) ([6]; TEST CONC (µg) 20): +++ ((+++) very good activity - there is 100% cell inhibition)
- IC50 [7]: > 40 µg/mL
- IC50 [8]: > 40 µg/mL
- cytotoxicity (inhibition zone on the cell sheet) (BHK cells): 0-
